Experiment [1] deals with T1, PI3K alpha (Homo sapiens, UniProt P42336).
T1 construct: for the p110-a subunit (with a deletion of the first 20 amino acids) are generated; His tag (C); made in house; host or cells: baculovirus BV1075; Tn5 (Trichoplusia ni) or TiniPro insect cells
In words: Enzymatic PI3K alpha isoform inhibition (lipid kinase activity, Kinase-Glo). The format is biochemical. The settings on record: enzymatic assay. As for the experimental part: (§1) The components of the assay are added per well as follows:
(§2) IC50 is determined by a four parameter curve fitting routine that comes along with “excel fit”.
(§3) Yet alternatively, for an ATP depletion assay, compounds of the formula I to be tested are dissolved in DMSO and directly distributed into a white 384-well plate at 0.5 μl per well. To start the reaction, 10 μl of 10 nM PI3 kinase and 5 μg/ml 1-alpha-phosphatidylinositol (PI) are added into each well followed by 10 μl of 2 μM ATP. The reaction is performed until approx 50% of the ATP is depleted, and then stopped by the addition of 20 μl of Kinase-Glo solution (Promega Corp., Madison, Wis., USA). The stopped reaction is incubated for 5 minutes and the remaining ATP is then detected via luminescence. IC50 values are then determined.
On the technique in general: In Kinase-Glo more light means more ATP remaining.

The target in experiment [2] is T2, PI3K delta (Homo sapiens, UniProt O00329).
T2 construct: for the full-length p110-d subunit are generated and fused by overlapping PCR; His tag (C); made in house; host or cells: baculovirus BV1060; Tn5 (Trichoplusia ni) or TiniPro insect cells
T2 sequence (O00329 with tags, fused parts or gaps limits assumed, species assumed): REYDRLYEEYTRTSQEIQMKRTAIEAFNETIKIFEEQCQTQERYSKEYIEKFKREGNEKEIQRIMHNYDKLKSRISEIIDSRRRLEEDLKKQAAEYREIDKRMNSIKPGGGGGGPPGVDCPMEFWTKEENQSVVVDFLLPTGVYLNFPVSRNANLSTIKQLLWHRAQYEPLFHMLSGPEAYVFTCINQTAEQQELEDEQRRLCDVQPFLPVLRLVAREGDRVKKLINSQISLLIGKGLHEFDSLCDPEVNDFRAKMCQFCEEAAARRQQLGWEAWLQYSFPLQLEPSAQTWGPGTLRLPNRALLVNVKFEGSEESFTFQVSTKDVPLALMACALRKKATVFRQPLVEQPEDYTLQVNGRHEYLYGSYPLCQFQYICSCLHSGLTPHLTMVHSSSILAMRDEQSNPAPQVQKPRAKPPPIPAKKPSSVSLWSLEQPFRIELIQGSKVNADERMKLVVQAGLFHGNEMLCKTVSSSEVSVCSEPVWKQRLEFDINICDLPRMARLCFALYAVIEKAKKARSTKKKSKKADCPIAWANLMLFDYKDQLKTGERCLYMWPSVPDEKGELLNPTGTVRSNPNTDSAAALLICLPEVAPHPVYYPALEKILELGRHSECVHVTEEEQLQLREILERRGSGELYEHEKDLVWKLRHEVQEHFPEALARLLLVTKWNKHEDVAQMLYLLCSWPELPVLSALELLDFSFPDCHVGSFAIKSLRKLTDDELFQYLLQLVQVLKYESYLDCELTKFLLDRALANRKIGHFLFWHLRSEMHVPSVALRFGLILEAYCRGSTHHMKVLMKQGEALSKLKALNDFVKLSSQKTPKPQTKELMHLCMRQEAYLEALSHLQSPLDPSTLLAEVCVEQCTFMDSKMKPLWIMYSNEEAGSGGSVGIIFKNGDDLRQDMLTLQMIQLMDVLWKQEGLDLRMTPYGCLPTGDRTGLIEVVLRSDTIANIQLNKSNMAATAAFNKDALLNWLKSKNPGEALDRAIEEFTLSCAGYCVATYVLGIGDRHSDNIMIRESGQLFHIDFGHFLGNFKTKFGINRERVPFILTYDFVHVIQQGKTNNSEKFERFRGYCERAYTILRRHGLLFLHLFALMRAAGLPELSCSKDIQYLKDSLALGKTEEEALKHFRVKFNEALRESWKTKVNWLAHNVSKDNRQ
In words: Enzymatic PI3K delta isoform inhibition (lipid kinase activity, Kinase-Glo). The experiment is classed as biochemical. The settings on record: enzymatic assay. How it is done: as §1, §2, §3

Each structure is given as a SMILES string. A value given as a limit tells only on which side of the number the result lay.

As usually defined, the IC50 is the concentration at which inhibition is half-maximal.

T1 sequence (P42336 with tags, fused parts or gaps limits assumed, species assumed): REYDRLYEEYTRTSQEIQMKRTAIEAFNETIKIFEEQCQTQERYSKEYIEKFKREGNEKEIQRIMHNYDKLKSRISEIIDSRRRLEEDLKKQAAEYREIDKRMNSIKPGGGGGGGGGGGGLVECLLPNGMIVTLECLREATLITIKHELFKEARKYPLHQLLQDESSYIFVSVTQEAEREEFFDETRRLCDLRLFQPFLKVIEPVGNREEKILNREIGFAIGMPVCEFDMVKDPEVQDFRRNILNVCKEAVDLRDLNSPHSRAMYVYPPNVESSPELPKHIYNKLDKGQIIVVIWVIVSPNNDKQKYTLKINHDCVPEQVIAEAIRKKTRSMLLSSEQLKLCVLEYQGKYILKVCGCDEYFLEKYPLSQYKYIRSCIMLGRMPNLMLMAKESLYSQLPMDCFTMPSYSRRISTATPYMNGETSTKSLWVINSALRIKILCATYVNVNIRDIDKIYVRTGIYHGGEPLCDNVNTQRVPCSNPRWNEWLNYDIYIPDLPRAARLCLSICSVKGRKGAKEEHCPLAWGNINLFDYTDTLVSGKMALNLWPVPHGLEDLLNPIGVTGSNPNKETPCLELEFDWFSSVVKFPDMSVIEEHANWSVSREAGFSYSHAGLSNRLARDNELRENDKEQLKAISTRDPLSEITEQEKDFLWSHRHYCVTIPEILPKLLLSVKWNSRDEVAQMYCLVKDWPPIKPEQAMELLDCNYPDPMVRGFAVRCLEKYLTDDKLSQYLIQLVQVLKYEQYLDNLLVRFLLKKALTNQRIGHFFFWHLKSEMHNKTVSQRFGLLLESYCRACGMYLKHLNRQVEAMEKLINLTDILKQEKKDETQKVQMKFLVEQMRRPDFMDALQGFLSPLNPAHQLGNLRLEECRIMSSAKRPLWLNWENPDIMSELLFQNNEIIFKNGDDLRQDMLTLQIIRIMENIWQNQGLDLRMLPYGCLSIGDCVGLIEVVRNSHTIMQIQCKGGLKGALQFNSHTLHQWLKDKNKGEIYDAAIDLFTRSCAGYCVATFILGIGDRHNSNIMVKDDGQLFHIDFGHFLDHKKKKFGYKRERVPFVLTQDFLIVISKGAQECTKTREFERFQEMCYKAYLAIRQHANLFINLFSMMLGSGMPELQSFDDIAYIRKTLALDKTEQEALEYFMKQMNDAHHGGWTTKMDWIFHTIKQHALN

As to `COc1ccc(-c2ccc3ncnc(-c4ccc(C)c(C(=O)N5CCN(C)CC5)c4)c3c2)cn1` [Example 115, {5-[6-(6-Methoxy-pyridin-3-yl)-quinazolin-4-yl]-2-methyl-phenyl}-(4-methyl-piperazin-1-yl)-methanone], the half-inhibitory concentration (IC50) in experiment [1] was found to be 888 nM; in experiment [2], 42.5 nM.

`COc1ccc(-c2ccc3ncnc(-c4cncc(C(=O)N5CCOC(C)(C)C5)c4)c3c2)cc1C(F)(F)F` [Example 66]: the IC50 in experiment [1] is 763 nM; in experiment [2], 9.5 nM.

Regarding `COc1ncc(-c2ccc3ncnc(-c4cncc(C(=O)N5CCOCC5)c4)c3c2)cn1` [Example 70], the IC50 in experiment [1] stood at 1030 nM; in experiment [2], 30 nM.

Turning to `COc1ncc(-c2ccc3ncnc(-c4cncc(C(=O)N5CCOC(C)(C)C5)c4)c3c2)cc1C#N` [Example 62], the IC50 in experiment [1] was 1150 nM; in experiment [2] it was 7 nM.

For `CCOc1ccc(-c2ccc3ncnc(-c4cccc(C(=O)N5CCN(C)C(C)(C)C5)c4)c3c2)cn1` [Example 27], the IC50 amounted to 404 nM in experiment [1] and 18.5 nM in experiment [2].

Consider `COc1ncc(-c2ccc3ncnc(-c4cccc(C(=O)N5CCN[C@H](C)C5)c4)c3c2)cc1C#N` [Example 34, 2-Methoxy-5-{4-[3-((R)-3-methyl-piperazine-1-carbonyl)-phenyl]-quinazolin-6-yl}-nicotinonitrile], for which the 50% inhibitory concentration (IC50) amounted to 488 nM in experiment [1] and 22.5 nM in experiment [2].

As to `COc1ncc(-c2ccc3ncnc(-c4cccc(C(=O)N5CCN(C)C(C)(C)C5)c4)c3c2)cn1` [Example 26], the IC50 in experiment [1] was 614 nM; in experiment [2] it was 17.8 nM.

Take `COc1ncc(-c2ccc3ncnc(-c4cccc(C(=O)N5CCN(C(C)=O)CC5)c4)c3c2)cn1` [Example 4]: the figures for the IC50 in experiment [1] and in experiment [2] were 1160 nM and 9 nM, respectively.

Regarding `COc1ccc(-c2ccc3ncnc(-c4cccc(C(=O)N5CCN(CC(F)(F)F)CC5)c4)c3c2)cn1` [Example 87, {3-[6-(6-Methoxy-pyridin-3-yl)-quinazolin-4-yl]-phenyl}-[4-(2,2,2-trifluoro-ethyl)-piperazin-1-yl]-methanone], the IC50 in experiment [1] was 126 nM; in experiment [2], less than 3 nM.

Regarding `COc1ccc(-c2ccc3ncnc(-c4cc(C)cc(C(=O)N5CCN(C(C)=O)CC5)c4)c3c2)cn1` [Example 108, 1-(4-{3-[6-(6-Methoxy-pyridin-3-yl)-quinazolin-4-yl]-5-methyl-benzoyl}-piperazin-1-yl)-ethanone], the IC50 came out at 158 nM in experiment [1] and 7 nM in experiment [2].

With `COc1ccc(-c2ccc3ncnc(-c4cncc(C(=O)N5CCN(C)CC5)c4)c3c2)cc1C(F)(F)F` [Example 58], the IC50 in experiment [1] was 646 nM; in experiment [2], 5.5 nM.

On to `CN1CCN(C(=O)c2cccc(-c3ncnc4ccc(-c5ccc(OC(F)F)nc5)cc34)c2)CC1` [Example 13], for which the results for the IC50 in experiment [1] and in experiment [2] were 1330 nM and 34 nM, respectively.

In the case of `COc1ncc(-c2ccc3ncnc(-c4cccc(C(=O)N5CCNCC5)c4)c3c2)cc1C#N` [Example 35], the IC50 in experiment [1] was found to be 262 nM; in experiment [2], 7 nM.

As to `CNc1ccc(-c2ccc3ncnc(-c4cccc(C(=O)N5CCN(C)CC5)c4)c3c2)cn1` [Example 41], the half-maximal inhibitory concentration (IC50) in experiment [1] was found to be 708 nM; in experiment [2] it was 20.5 nM.

With `COc1ccc(-c2ccc3ncnc(-c4cncc(C(=O)N5CCNC[C@@H]5C)c4)c3c2)cc1C(F)(F)F` [Example 84, {5-[6-(4-Methoxy-3-trifluoromethyl-phenyl)-quinazolin-4-yl]-pyridin-3-yl}-((S)-2-methyl-piperazin-1-yl)-methanone], the figures for the IC50 in experiment [1] and in experiment [2] were 558 nM and 9.5 nM, respectively.

As for `COc1ccc(-c2ccc3ncnc(-c4cccc(C(=O)N5CCN(C)C[C@@H]5C)c4)c3c2)cn1` [Example 99, ((S)-2,4-Dimethyl-piperazin-1-yl)-{3-[6-(6-methoxy-pyridin-3-yl)-quinazolin-4-yl]-phenyl}-methanone], the IC50 is 237 nM in experiment [1] and 4.5 nM in experiment [2].

As for `COc1ncc(-c2ccc3ncnc(-c4cccc(C(=O)N5CCOCC5)c4)c3c2)cc1C#N` [Example 30], the figures for the IC50 in experiment [1] and in experiment [2] were 387 nM and 6.67 nM, respectively.

As to `COc1ccc(-c2ccc3ncnc(-c4ccc(C)c(C(=O)N5CCN(C(C)=O)CC5)c4)c3c2)cn1` [Example 100, 1-(4-{5-[6-(6-Methoxy-pyridin-3-yl)-quinazolin-4-yl]-2-methyl-benzoyl}-piperazin-1-yl)-ethanone], the IC50 in experiment [1] worked out at 188 nM; in experiment [2] it was 5 nM.

For the molecule `CC(=O)N1CCN(C(=O)c2cncc(-c3ncnc4ccc(-c5cncc(C(F)(F)F)c5)cc34)c2)CC1` [Example 50, 1-(4-{5-[6-(5-Trifluoromethyl-pyridin-3-yl)-quinazolin-4-yl]-pyridine-3-carbonyl}-piperazin-1-yl)-ethanone], the IC50 in experiment [1] was 319 nM; in experiment [2] it was 10.5 nM.

In the case of `COc1ncc(-c2ccc3ncnc(-c4cc(C(=O)N5CCN(C(C)=O)CC5)cc(C(F)(F)F)c4)c3c2)cc1C#N` [Example 103, 5-{4-[3-(4-Acetyl-piperazine-1-carbonyl)-5-trifluoromethyl-phenyl]-quinazolin-6-yl}-2-methoxy-nicotinonitrile], the IC50 in experiment [1] came to 2120 nM; in experiment [2], 8 nM.

On to `COc1cc(C(=O)N2CCN(C(C)=O)CC2)cc(-c2ncnc3ccc(-c4ccc(OC)nc4)cc23)c1` [Example 106, 1-(4-{3-Methoxy-5-[6-(6-methoxy-pyridin-3-yl)-quinazolin-4-yl]-benzoyl}-piperazin-1-yl)-ethanone], for which the values for the IC50 in experiment [1] and in experiment [2] were 440 nM and 5 nM, respectively.

As to `CC(=O)N1CCN(C(=O)c2cccc(-c3ncnc4ccc(-c5cc(C#N)c(N)c(C(F)(F)F)c5)cc34)c2)CC1` [Example 10], the values for the IC50 in experiment [1] and in experiment [2] were more than 9100 nM and 27 nM, respectively.

Take `COc1ncc(-c2ccc3ncnc(-c4cncc(C(=O)N5CCN(C)CC5)c4)c3c2)cc1C#N` [Example 56]: the half-inhibitory concentration (IC50) in experiment [1] was found to be 542 nM; in experiment [2], 11 nM.

Turning to `CN1CCN(C(=O)c2cccc(-c3ncnc4ccc(-c5ccc(N6CCCC6)nc5)cc34)c2)CC1` [Example 15], the IC50 in experiment [1] worked out at 1230 nM; in experiment [2], 17 nM.

With `COc1ncc(-c2ccc3ncnc(-c4cc(C(=O)N5CCN(C(C)=O)CC5)cc(C(F)(F)F)c4)c3c2)cn1` [Example 104, 1-(4-{3-[6-(2-Methoxy-pyrimidin-5-yl)-quinazolin-4-yl]-5-trifluoromethyl-benzoyl}-piperazin-1-yl)-ethanone], the values for the IC50 in experiment [1] and in experiment [2] were 3290 nM and 38 nM, respectively.

For the molecule `COc1ncc(-c2ccc3ncnc(-c4cccc(C(=O)N5CCN(C(C)=O)CC5)c4)c3c2)cc1F` [Example 3], the values for the 50% inhibitory concentration (IC50) in experiment [1] and in experiment [2] were 62 nM and less than 3 nM, respectively.

With `CC1(C)CN(C(=O)c2cncc(-c3ncnc4ccc(-c5cncc(S(C)(=O)=O)c5)cc34)c2)CCO1` [Example 64], the IC50 was 583 nM in experiment [1] and 11 nM in experiment [2].

In the case of `COc1ncc(-c2ccc3ncnc(-c4cccc(C(=O)N5CCN(C(C)=O)C(C)(C)C5)c4)c3c2)cc1C#N` [Example 37], the IC50 in experiment [1] came out at 426 nM; in experiment [2], 4 nM.

In the case of `COc1ccc(-c2ccc3ncnc(-c4cccc(C(=O)N5CCN(C)CC5)c4)c3c2)cc1C#N` [Example 45], the IC50 in experiment [1] stood at 1200 nM; in experiment [2] it was 36.5 nM.

Regarding `CN1CCN(C(=O)c2cccc(-c3ncnc4ccc(-c5ccc(N)nc5)cc34)c2)CC1` [Example 25], the IC50 in experiment [1] is 184 nM; in experiment [2], 7 nM.
